Results: ChEMBL document CHEMBL1149199 (Bioorg Med Chem Lett, 2004)

Columns and labels:
[1] = target: T1, Sodium-dependent dopamine transporter (Homo sapiens, UniProt Q01959); assay: Ability to inhibit [3H]mazindol binding to cloned human dopamine (DA) transporter
[2] = target: T2, Sodium-dependent serotonin transporter (Homo sapiens, UniProt P31645)
Description: Ability to inhibit [3H]paroxetine binding to cloned human serotonin (5-HT) transporter

[3] = target: T3, Sodium-dependent noradrenaline transporter (Homo sapiens, UniProt P23975)
[4] = target: T3, Sodium-dependent noradrenaline transporter; assay: Ability to inhibit [3H]nisoxetine binding to cloned human norepinephrine (NE) transporter; Average of two experiments
[5] = target: T1, Sodium-dependent dopamine transporter
Description: Ability to inhibit [3H]mazindol binding to cloned human dopamine (DA) transporter; Average of two experiments

[6] = target: T2, Sodium-dependent serotonin transporter; remark: listed apart in the source
Description: Ability to inhibit [3H]paroxetine binding to cloned human serotonin (5-HT) transporter; Average of two experiments

T2 sequence (P31645 whole entry): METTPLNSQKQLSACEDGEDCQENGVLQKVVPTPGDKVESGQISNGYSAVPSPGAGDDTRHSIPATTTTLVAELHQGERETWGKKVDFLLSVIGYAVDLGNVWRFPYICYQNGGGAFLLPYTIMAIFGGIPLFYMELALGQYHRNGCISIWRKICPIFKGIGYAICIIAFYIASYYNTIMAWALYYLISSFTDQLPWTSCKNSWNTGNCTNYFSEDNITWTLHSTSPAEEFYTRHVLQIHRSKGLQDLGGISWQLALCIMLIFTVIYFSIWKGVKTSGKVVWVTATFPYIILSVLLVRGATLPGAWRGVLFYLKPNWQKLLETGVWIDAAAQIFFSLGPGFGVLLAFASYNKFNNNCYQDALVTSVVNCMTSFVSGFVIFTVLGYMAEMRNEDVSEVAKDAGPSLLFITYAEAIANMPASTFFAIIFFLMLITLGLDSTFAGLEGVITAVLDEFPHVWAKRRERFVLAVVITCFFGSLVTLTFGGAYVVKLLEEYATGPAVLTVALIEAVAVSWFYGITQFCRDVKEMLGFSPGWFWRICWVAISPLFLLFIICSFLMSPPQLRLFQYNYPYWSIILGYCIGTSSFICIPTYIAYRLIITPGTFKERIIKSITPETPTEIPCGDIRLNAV
T3 sequence (P23975 whole entry): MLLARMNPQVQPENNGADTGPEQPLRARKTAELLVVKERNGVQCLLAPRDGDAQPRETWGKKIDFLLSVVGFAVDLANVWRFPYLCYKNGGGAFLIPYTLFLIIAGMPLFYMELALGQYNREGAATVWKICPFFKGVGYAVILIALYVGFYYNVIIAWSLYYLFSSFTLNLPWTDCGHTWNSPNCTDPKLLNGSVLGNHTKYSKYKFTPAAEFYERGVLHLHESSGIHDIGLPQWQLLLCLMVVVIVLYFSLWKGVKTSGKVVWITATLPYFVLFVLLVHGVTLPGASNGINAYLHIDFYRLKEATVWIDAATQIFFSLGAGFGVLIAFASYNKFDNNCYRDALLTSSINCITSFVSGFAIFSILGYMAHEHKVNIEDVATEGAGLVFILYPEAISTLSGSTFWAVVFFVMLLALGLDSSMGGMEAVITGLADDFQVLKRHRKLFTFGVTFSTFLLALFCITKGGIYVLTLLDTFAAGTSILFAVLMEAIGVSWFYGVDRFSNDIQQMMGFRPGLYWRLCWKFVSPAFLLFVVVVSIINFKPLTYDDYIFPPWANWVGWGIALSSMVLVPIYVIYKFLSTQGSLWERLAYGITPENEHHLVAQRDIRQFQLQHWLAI
T1 sequence (Q01959 whole entry): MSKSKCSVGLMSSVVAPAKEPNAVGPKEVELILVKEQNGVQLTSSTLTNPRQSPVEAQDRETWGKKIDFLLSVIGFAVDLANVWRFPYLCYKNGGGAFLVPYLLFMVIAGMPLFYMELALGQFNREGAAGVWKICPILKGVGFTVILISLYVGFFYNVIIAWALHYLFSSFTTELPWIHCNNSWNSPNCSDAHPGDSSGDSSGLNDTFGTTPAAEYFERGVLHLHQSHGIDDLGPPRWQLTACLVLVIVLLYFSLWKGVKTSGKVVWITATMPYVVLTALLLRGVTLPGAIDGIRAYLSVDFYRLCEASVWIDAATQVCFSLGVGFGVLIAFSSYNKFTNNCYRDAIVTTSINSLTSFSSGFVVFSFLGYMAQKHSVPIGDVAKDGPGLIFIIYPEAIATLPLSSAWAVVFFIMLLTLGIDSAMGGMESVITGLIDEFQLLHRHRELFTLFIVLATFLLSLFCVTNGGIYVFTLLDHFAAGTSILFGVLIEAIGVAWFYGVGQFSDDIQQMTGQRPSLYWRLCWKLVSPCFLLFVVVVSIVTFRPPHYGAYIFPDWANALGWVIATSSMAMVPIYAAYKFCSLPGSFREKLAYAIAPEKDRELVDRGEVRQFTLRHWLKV

| Ki [1] [µM] | Ki [2] [nM] | Ki [3] [µM] | Ki [4] [nM] | Ki [5] [nM] | Ki [6] [nM] | Structure (SMILES) |
| --- | --- | --- | --- | --- | --- | --- |
| 7.27 | 120 | 0.695 | – | – | – | CNCC[C@H](Oc1cccc2c(O)c(O)ccc12)c1cccs1 (stereo in doubt; form 2) |
| – | – | – | 235 | 353 | 3.66 | CNCC[C@H](Oc1cccc2c(OC)c(O)ccc12)c1cccs1 |
| > 10 | 31.7 | 0.554 | – | – | – | CNCC[C@H](Oc1cccc2c(O)c(O)ccc12)c1cccs1 (stereo in doubt; form 1) |
| – | – | – | 4.72 | 163 | 1.06 | CNCC[C@H](Oc1cccc2cc(O)ccc12)c1cccs1 |
| > 10 | 3120 | > 10 | – | – | – | CNCC[C@H](Oc1cccc2c(OS(=O)(=O)O)c(OC)ccc12)c1cccs1 |
| > 10 | 1460 | 5.45 | – | – | – | CNCC[C@H](Oc1cccc2cc(O[C@@H]3O[C@H](C(=O)O)[C@@H](O)[C@H](O)[C@H]3O)ccc12)c1cccs1 |
| – | – | – | 97.1 | 130 | 63.9 | CNCC[C@H](Oc1ccc(O)c2ccccc12)c1cccs1 |

The next lines start with the compound.

| Structure (SMILES) | Ki [1] [µM] | Ki [2] [nM] | Ki [3] [µM] | Ki [4] [nM] | Ki [5] [nM] | Ki [6] [nM] |
| --- | --- | --- | --- | --- | --- | --- |
| CNCC[C@H](Oc1cccc2c(O[C@@H]3O[C@H](C(=O)O)[C@@H](O)[C@H](O)[C@H]3O)c(OC)ccc12)c1cccs1 | > 10 | > 10000 | > 10 | – | – | – |
| CNCC[C@H](Oc1cccc2c(O)cccc12)c1cccs1 | – | – | – | 18.4 | 241 | 9.6 |
| CNCC[C@H](Oc1cccc2c(O[C@@H]3O[C@H](C(=O)O)[C@@H](O)[C@H](O)[C@H]3O)c(O[C@@H]3O[C@H](C(=O)O)[C@@H](O)[C@H](O)[C@H]3O)ccc12)c1cccs1 | > 10 | > 10000 | > 10 | – | – | – |
| CNCC[C@H](Oc1cccc2c(O)c(OC)ccc12)c1cccs1 | 2.81 | 266 | 0.92 | – | – | – |
| CNCC[C@H](Oc1ccc(O[C@@H]2O[C@H](C(=O)O)[C@@H](O)[C@H](O)[C@H]2O)c2ccccc12)c1cccs1 | 3.51 | > 10000 | > 10 | – | – | – |
